Results reported in patent publication US9023831B2, “Methods and compositions of inhibiting complement and cellular activation with Dextran Sulfate” (Novelmed Therapeutics, Inc., priority 2007, dated 2015).

Tests used:
[1] = system: platelets (CD62P staining); assay: Platelet activation (CD62P flow cytometry) after tubing loop; assay type: cell-based, human; settings: Aspirin 100 μg/ml added to NM3014 prior to tubing loop rotation
Method: It was expected that platelet activation would also be inhibited. […] The inhibition of platelet activation was measured using flow cytometry following CD62P staining of activated platelets.
It was expected that platelet activation will also be inhibited. […] The inhibition of platelet activation was measured using flow cytometry following CD62P staining of activated platelets.
While platelets bear C3a receptors, it is not clear how platelets were being activated. In an effort to downregulate platelet activation, we performed an experiment in which Dextran Sulfate was utilized in combination with aspirin. […] These surprising results present Dextran Sulfate as a lead complement inhibitory drug that down regulates both complement and cellular activation in heparinized whole human blood. Shown in FIGS. 10d and 10e are results from this study.
For CD62P labeling of platelets, 100 μl of diluted blood collected from the circuits were immediately incubated with 20 μl of PE-anti-CD62P antibody (Becton Dickinson) for 20 minutes at room temperature in a polypropylene tube, Then the mixture was treated with FACS Lysing Solution as described above. The microcentrifuge tubes were centrifuged at 12000. g for 5 minutes. The platelets were washed in PBS/BSA 01%, fixed in 1% paraformaldehyde and then analyzed as described above. For double labeling to concomitantly identify the platelet population, 5 μl of FITC-anti-CD61 antibody were added for incubation together with PE-anti-CD62P antibody.
For flow cytometry measurement, the PMN (containing mainly neutrophils) and platelet populations were identified by live gating based on forward- versus side-scatter parameters and specific staining with FITC-anti-CD15 antibody and FITC-anti-CD61 antibody, respectively. The background staining was gated using isotype-matched labeled antibodies. The intensity of expression of CD11b and CD62P was represented by mean fluorescence intensity (MFI).

arthritic Lewis rats = assay: Joint inflammation and bone destruction in Rat-AIA (CFA-induced arthritis); assay type: in vivo
Method: Lewis male rats were used to examine the effect of Dextran Sulfate combination with aggrastat (molecular weight 40,000 and 5,000) for the treatment of arthritis. Arthritis was induced in adult male Lewis rats (200-225 gm) by an intradermal injection of complete Freund's adjuvant (CFA) at the base of the tail on the dorsal side. The CFA (100 mg dried and heat killed Mycobacterium butyricum (Difco, Detroit, Mich.) emulsified in 10 ml sterile mineral oil) was prepared by grinding the bacteria powder with a mortar and pestle until the bacterial cell wall turned from a light beige to an eggshell white powder. The mineral oil was then slowly mixed into the bacterial cell wall using the mortar and pestle. All animals in each experiment were challenged with the same preparation of adjuvant and nearly 100% of the animals developed arthritis. Dextran Sulfate was obtained from Sigma Aldrich Corp and Aggrastat was purchased from the pharmacy. Dextran Sulfate was dissolved in aggrastat. The drug treatment started on day 10 post-immunization, the time of disease onset, and continued until sacrifice. The dose of Dextran Sulfate was 20 & 10 mg/Kg/per day per 150-200 g rat. The inflammatory response was assesed by the measurement of paw volume. Paw volume appears to be very consistent and gave slow increasing arthritis over time. Paw volumes were measured every day until sacrifice using Plethysmometer (IITC). After the sacrifice/euthanasia, limbs were removed and processed for;
a) histological evaluations: Only three animals were used per group. Sections were stained with Eosin and hematoxylin to identify various regions within the inflamed limb. Untreated controls have intact cartilage layer and the bone (Score 0) and clear synovium without pannus. Arthritic controls had no defined cartilage bone, and have pannus layer and significant inflammation (Score 5). Enbrel was used as positive control. […] We gave a score of 2.
b) Paw Swelling: Each paw was measured for water displacement using plethysmometer. Paw volume was measured every day.
Continuous treatment of Dextran Sulfate therapies from disease onset affected paw swelling in arthritic rats. All adjuvant-challenged rats developed AA between days 10-12. […] While inflammation was decreased in these treatment groups, we observed a greater effect for these drugs in prevention of bone and cartilage destruction.

Molecule: CC(=O)Oc1ccccc1C(=O)O [Aspirin, reference compound]
- inhibition of NM3014 induced platelet activation [1]: inhibition of platelet activation much below the control levels
- inhibition of NM3014 induced platelet activation ([1]; listed as aspirin): downregulated activation of platelets much below control levels

Molecule: Dextran Sulfate [Dextran Sulfate 5,000]
- paw swelling (paw volume, plethysmometer) (arthritic Lewis rats; with Aggrastat, compared to untreated controls): decreased the inflammation

Molecule: Enbrel [reference compound]
- histological score (arthritic Lewis rats; Score 0 untreated controls, Score 5 arthritic controls): 2
